Patent EP4763839A1 (Pamplona Therapeutics (Shenzhen) Co., Ltd., priority 2023, dated 2025)
Where a name gives a salt, the structure may show the parent alone.

Target: T1, IRAK4 (Homo sapiens, UniProt Q9NWZ3)
T1 sequence (Q9NWZ3 1-460): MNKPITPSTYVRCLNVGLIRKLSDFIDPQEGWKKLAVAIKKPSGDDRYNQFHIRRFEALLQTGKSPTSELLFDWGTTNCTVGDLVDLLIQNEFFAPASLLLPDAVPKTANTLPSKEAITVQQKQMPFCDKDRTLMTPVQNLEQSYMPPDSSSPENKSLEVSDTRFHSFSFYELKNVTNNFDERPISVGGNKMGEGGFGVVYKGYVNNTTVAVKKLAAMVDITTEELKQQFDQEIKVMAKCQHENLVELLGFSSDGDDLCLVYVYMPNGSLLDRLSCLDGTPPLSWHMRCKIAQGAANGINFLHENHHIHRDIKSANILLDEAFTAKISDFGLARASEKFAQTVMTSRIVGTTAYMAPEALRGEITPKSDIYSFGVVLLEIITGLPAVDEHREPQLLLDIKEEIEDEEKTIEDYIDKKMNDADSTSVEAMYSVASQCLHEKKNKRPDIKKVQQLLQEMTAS
Experiment: Degradation of IRAK4 in THP1 cells, Western blot
Assay type: cell-based
Design: Degradation of IRAK4 in THP1 by compound; host or cells: THP-1
Details: THP-1 cells, 24 hours of incubation; for DC50: IRAK4 protein by Western blot, read-out: DC50; for Dmax: maximum degradation rate, read-out: Dmax
Description: After 24 hours of incubation, the cells were collected into 1.5 mL centrifuge tubes and centrifuged at 1,000 rpm for 5 minutes. […] The supernatants were collected, and the IRAK4 protein levels were respectively detected by Western blot (WB). The total protein concentration in the cell lysate supernatant was determined using a BCA protein quantification kit (NCM). Based on the total protein concentration detected by BCA, the samples were adjusted to 2 μg/μL using cell lysis buffer and 5×SDS-PAGE protein loading buffer (Beyotime), heated at 95°C for 5 minutes in a metal bath, and then placed on ice for an ice bath for 5 minutes before being used as the loading samples for Western blot analysis. Protein electrophoresis was performed using a 10% SDS-PAGE gel with a loading volume of 20 μL (total protein 40 μg) and Tris-SDS electrophoresis at a constant voltage of 80 V. After electrophoresis, the proteins on the gel were transferred to a 0.2 μm PVDF membrane (Immobilon) using a semi-dry transfer method at 0.5 A and 20 V for 60 minutes. After transfer, the membrane was placed in 5% skimmed milk and incubated at rt for 2 hours. After blocking, the PVDF membrane was incubated with primary antibody against IRAK4 (Abcam) at 4°C overnight. […] The color development and protein band imaging were performed using a chemiluminescence imaging system ([…] Technology Co., Ltd.). The protein bands were analyzed for grayscale values using Image J analysis software. The corrected grayscale values for each sample were calculated and then compared with those of the control group treated with DMSO alone to calculate the degradation rate.

Row | SMILES | DC50 [nM] | Dmax [%]
1 | Cn1c(=O)n(C2CCC(=O)NC2=O)c2cccc(C#CCCN3CCN(C(=O)c4ccc(-n5cc(NC(=O)c6cccc(-c7ccn[nH]7)n6)c(S(N)(=O)=O)n5)cc4)CC3)c21 (stereo not shown) [Compound A336] | < 100 | > 60
2 | CN(CCN1CC2CN(c3cccc4c3n(C)c(=O)n4C3CCC(=O)NC3=O)CC2C1)Cc1ccc(-n2cc(NC(=O)c3cccc(-c4ccn[nH]4)n3)c(S(N)(=O)=O)n2)cc1 (stereo not shown) [Compound A337, N-(1-(4-(((2-(5-(1-(2,6-Dioxopiperidin-3-yl)-3-methyl-2-oxo-2,3-dihydro-1H-benzo[d]imidazol-4-yl)hexahydropyrrolo[3,4-c]pyrrol-2(1H)-yl)ethyl)(methyl)amino)methyl)phenyl)-3-sulfamoyl-1H-pyrazol-4-yl)-6-(1H-pyrazol-5-yl)picolinamide] | < 100 | > 60
3 | Cn1c(=O)n(C2CCC(=O)NC2=O)c2cccc(NCCN3CC4CN(Cc5ccc(-n6cc(NC(=O)c7cccc(-c8ccn[nH]8)n7)c(S(N)(=O)=O)n6)cc5)CC4C3)c21 (stereo not shown) [Compound A338] | < 100 | > 60
4 | Cn1c(=O)n(C2CCC(=O)NC2=O)c2cccc(NCCN3CC4CN(C(=O)c5ccc(-n6cc(NC(=O)c7cccc(-c8ccn[nH]8)n7)c(S(N)(=O)=O)n6)cc5)CC4C3)c21 (stereo not shown) [Compound A339] | < 100 | > 60
5 | Cn1c(=O)n(C2CCC(=O)NC2=O)c2cccc(C#CCOC3CCN(Cc4ccc(-n5cc(NC(=O)c6cccc(-c7ccn[nH]7)n6)c(S(N)(=O)=O)n5)cc4)CC3)c21 (stereo not shown) [Compound A340, N-(1-(4-((4-((3-(1-(2,6-Dioxopiperidin-3-yl)-3-methyl-2-oxo-2,3-dihydro-1H-benzo[d]imidazol-4-yl)prop-2-yn-1-yl)oxy)piperidin-1-yl)methyl)phenyl)-3-sulfamoyl-1H-pyrazol-4-yl)-6-(1H-pyrazol-5-yl)picolinamide] | < 100 | > 60
6 | Cn1c(=O)n(C2CCC(=O)NC2=O)c2cccc(N3CCC4(CCN(CCNC(=O)c5ccc(-n6cc(NC(=O)c7cccc(-c8ccn[nH]8)n7)c(S(N)(=O)=O)n6)cc5)C4)C3)c21 (stereo not shown) [Compound A341, N-(1-(4-((2-(7-(1-(2,6-Dioxopiperidin-3-yl)-3-methyl-2-oxo-2,3-dihydro-1H-benzo[d]imidazol-4-yl)-2,7-diazaspiro[4.4]nonan-2-yl)ethyl)carbamoyl)phenyl)-3-sulfamoyl-1H-pyrazol-4-yl)-6-(1H-pyrazol-5-yl)picolinamide formate] | < 100 | > 60
7 | Cn1c(=O)n(C2CCC(=O)NC2=O)c2cccc(NCCN3CC4(C3)CN(C(=O)c3ccc(-n5cc(NC(=O)c6cccc(-c7ccn[nH]7)n6)c(S(N)(=O)=O)n5)cc3)C4)c21 (stereo not shown) [Compound A343] | < 100 | > 60
8 | Cn1c(=O)n(C2CCC(=O)NC2=O)c2cccc(C#CCOC3CN(C(=O)c4ccc(-n5cc(NC(=O)c6cccc(-c7ccn[nH]7)n6)c(S(N)(=O)=O)n5)cc4)C3)c21 (stereo not shown) [Compound A348] | < 100 | > 60
9 | N#Cc1ccnc(C(=O)Nc2cn(-c3ccc(N4CCN(CC5CCN(c6ccc(NC7CCC(=O)NC7=O)cc6F)CC5)CC4)cc3)nc2C(N)=O)c1 (stereo not shown) [Compound A349, N-(3-Carbamoyl-1-(4-(4-((1-(4-((2,6-dioxopiperidin-3-yl)amino)-2-fluorophenyl)piperidin-4-yl)methyl)piperazin-1-yl)phenyl)-1H-pyrazol-4-yl)-4-cyanopicolinamide] | > 1000 | < 40
10 | Cn1c(=O)n(C2CCC(=O)NC2=O)c2cccc(N3CCC(CCN4CCN(c5ccc(-n6cc(NC(=O)c7cccc(-c8ccn[nH]8)n7)c(S(N)(=O)=O)n6)cc5)CC4)CC3)c21 (stereo not shown) [Compound A350, N-(1-(4-(4-(2-(1-(1-(2,6-Dioxopiperidin-3-yl)-3-methyl-2-oxo-2,3-dihydro-1H-benzo[d]imidazol-4-yl)piperidin-4-yl)ethyl)piperazin-1-yl)phenyl)-3-sulfamoyl-1H-pyrazol-4-yl)-6-(1H-pyrazol-5-yl)picolinamide] | < 100 | > 60
11 | Cn1c(=O)n(C2CCC(=O)NC2=O)c2cccc(C#CCOC3CN(Cc4ccc(-n5cc(NC(=O)c6cccc(-c7ccn[nH]7)n6)c(S(N)(=O)=O)n5)cc4)C3)c21 (stereo not shown) [Compound A351, N-(1-(4-((3-((3-(1-(2,6-dioxopiperidin-3-yl)-3-methyl-2-oxo-2,3-dihydro-1H-benzo[d]imidazol-4-yl)prop-2-yn-1-yl)oxy)azetidin-1-yl)methyl)phenyl)-3-sulfamoyl-1H-pyrazol-4-yl)-6-(1H-pyrazol-5-yl)picolinamide] | 100 to 1000 | 40 to 60
12 | Cn1c(=O)n(C2CCC(=O)NC2=O)c2cccc(N3CCC(N4CCN(Cc5ccc(-n6cc(NC(=O)c7cccc(-c8ccn[nH]8)n7)c(S(N)(=O)=O)n6)cc5)CC4)CC3)c21 (stereo not shown) [Compound A352] | < 100 | > 60
13 | N#Cc1ccc(C(=O)Nc2cn(-c3ccc(N4CCN(CC5CCN(c6ccc(NC7CCC(=O)NC7=O)cc6F)CC5)CC4)cc3)nc2C(N)=O)nc1 (stereo not shown) [Compound A353, N-(3-Carbamoyl-1-(4-(4-((1-(4-((2,6-dioxopiperidin-3-yl)amino)-2-fluorophenyl)piperidin-4-yl)methyl)piperazin-1-yl)phenyl)-1H-pyrazol-4-yl)-5-cyanopicolinamide] | > 1000 | < 40
14 | Cn1c(=O)n(C2CCC(=O)NC2=O)c2cccc(NCC3CC4(C3)CN(C(=O)c3ccc(-n5cc(NC(=O)c6cccc(-c7ccn[nH]7)n6)c(S(N)(=O)=O)n5)cc3)C4)c21 (stereo not shown) [Compound A354, N-(1-(4-(6-(((1-(2,6-Dioxopiperidin-3-yl)-3-methyl-2-oxo-2,3-dihydro-1H-benzo[d]imidazol-4-yl)amino)methyl)-2-azaspiro[3.3]heptane-2-carbonyl)phenyl)-3-sulfamoyl-1H-pyrazol-4-yl)-6-(1H-pyrazol-5-yl)picolinamide] | < 100 | > 60
15 | NC(=O)c1nn(-c2ccc(N3CCN(C(=O)N4CCC(c5ccc(OC6CCC(=O)NC6=O)cc5F)CC4)CC3)cc2)cc1NC(=O)c1cccc(C(F)(F)F)n1 (stereo not shown) [Compound A355, N-(3-Carbamoyl-1-(4-(4-(4-(4-((2,6-dioxopiperidin-3-yl)oxy)-2-fluorophenyl)piperidine-1-carbonyl)piperazin-1-yl)phenyl)-1H-pyrazol-4-yl)-6-(trifluoromethyl)picolinamide] | < 100 | > 60
16 | Cn1c(=O)n(C2CCC(=O)NC2=O)c2cccc(NCCN3CCN(C(=O)c4ccc(-n5cc(NC(=O)c6cccc(-c7ccn[nH]7)n6)c(S(N)(=O)=O)n5)cc4)CC3)c21 (stereo not shown) [Compound A356, N-(1-(4-(4-(2-((1-(2,6-Dioxopiperidin-3-yl)-3-methyl-2-oxo-2,3-dihydro-1H-benzo[d]imidazol-4-yl)amino)ethyl)piperazine-1-carbonyl)phenyl)-3-sulfamoyl-1H-pyrazol-4-yl)-6-(1H-pyrazol-5-yl)picolinamide] | < 100 | > 60
17 | Cn1c(=O)n(C2CCC(=O)NC2=O)c2cccc(C(=O)N3CCC4(CCN(Cc5ccc(-n6cc(NC(=O)c7cccc(-c8ccn[nH]8)n7)c(S(N)(=O)=O)n6)cc5)C4)CC3)c21 (stereo not shown) [Compound A357, N-(1-(4-((8-(1-(2,6-Dioxopiperidin-3-yl)-3-methyl-2-oxo-2,3-dihydro-1H-benzo[d]imidazole-4-carbonyl)-2,8-diazaspiro[4.5]decan-2-yl)methyl)phenyl)-3-sulfamoyl-1H-pyrazol-4-yl)-6-(1H-pyrazol-5-yl)picolinamide] | < 100 | > 60
